Assay results published in ChEMBL document CHEMBL3352063, “Transition state mimetics of the Plasmodium export element are potent inhibitors of Plasmepsin V from P. falciparum and P. vivax” (J Med Chem, 2014).
Numbered stars: 1 amine (or outer) side, 2 acyl side, 3 side chain; on linkers, the order of the positions; unused ones are H or OH. Square brackets hold non-standard residues; d marks the D form. Peptide text beside a SMILES is read from it. * marks the point of attachment. Sta = CC(C)C[C@H](N)[C@@H](O)CC(=O)O; Hydrocinnamoyl = O=C(CCc1ccccc1)*; NHPhenethyl = c1ccc(CCN*)cc1; Isobutyryl = CC(C)C(=O)*; Piperidide = C1CCN(*)CC1; Pyrrolidide = C1CCN(*)C1; Cbz = O=C(OCc1ccccc1)*; PhAc = O=C(Cc1ccccc1)*; CO = O=C([*:1])[*:2]; NHBn = c1ccc(CN*)cc1; Alloc = C=CCOC(=O)*; NHPh = c1ccc(N*)cc1; Ms = CS(=O)(=O)*; NHiPr = CC(C)N*; NHPr = CCCN*

Target: Plasmepsin V (Plasmodium falciparum (isolate 3D7)) (UniProt Q8I6Z5)
Experiment: Inhibition of Plasmodium falciparum plasmepsin V assessed as cleavage of wtKAHRP fluorogenic substrate at 1 uM

Chain of Plasmepsin V (Plasmodium falciparum (isolate 3D7)) (Q8I6Z5 whole entry, looked up): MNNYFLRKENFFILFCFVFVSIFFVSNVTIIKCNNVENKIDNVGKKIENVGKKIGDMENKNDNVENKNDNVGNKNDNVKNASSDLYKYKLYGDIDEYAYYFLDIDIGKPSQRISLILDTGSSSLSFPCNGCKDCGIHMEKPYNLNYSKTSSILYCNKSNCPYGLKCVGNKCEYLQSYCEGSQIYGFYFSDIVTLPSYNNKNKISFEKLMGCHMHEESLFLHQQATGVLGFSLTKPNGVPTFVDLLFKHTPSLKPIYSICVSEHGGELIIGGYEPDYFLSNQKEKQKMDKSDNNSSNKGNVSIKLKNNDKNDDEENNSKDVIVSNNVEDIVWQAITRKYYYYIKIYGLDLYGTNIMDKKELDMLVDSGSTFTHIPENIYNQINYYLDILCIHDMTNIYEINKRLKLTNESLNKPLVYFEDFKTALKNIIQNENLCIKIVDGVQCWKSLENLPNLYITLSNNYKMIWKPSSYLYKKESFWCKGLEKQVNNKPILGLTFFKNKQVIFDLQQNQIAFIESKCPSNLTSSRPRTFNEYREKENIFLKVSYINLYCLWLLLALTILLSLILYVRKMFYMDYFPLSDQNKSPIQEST

First: CC(C)C[C@H](NC(=O)[C@H](C)NC(=O)[C@H](CCCNC(=N)N)NC(=O)OCc1ccccc1)[C@@H](O)CC(=O)N(C)CCc1ccccc1
Second: CC(C)C[C@H](NC(=O)[C@H](C)NC(=O)[C@H](CCCNC(=N)N)NC(=O)OCc1ccccc1)[C@@H](O)CC(=O)N(C)Cc1ccccc1
The inhibition of the first is lower: 11% for the first, 30% for the second.

First: CC(C)C[C@H](NC(=O)[C@H](C)NC(=O)[C@H](CCCNC(=N)N)NC(=O)OCc1ccccc1)[C@@H](O)CC(=O)NC1CCCc2ccccc21 (stereo partly drawn)
Second: CC(C)C[C@H](NC(=O)[C@H](C)NC(=O)[C@H](CCCNC(=N)N)NC(=O)OCc1ccccc1)[C@@H](O)CC(=O)NC1CCC1
The inhibition of the first is lower: 51% for the first, 56% for the second.

First: CC(C)C[C@H](NC(=O)[C@H](C)NC(=O)[C@H](CCCNC(=N)N)NS(=O)(=O)CCc1ccccc1)[C@@H](O)CC(=O)NCCc1ccccc1
Second: CC(C)C[C@H](NC(=O)[C@H](C)NC(=O)[C@H](CCCNC(=N)N)NC(=O)CCc1ccccc1)[C@@H](O)CC(=O)NCCc1ccccc1 (Hydrocinnamoyl-Arg-Ala-[Sta]-NHPhenethyl)
The inhibition of the first is higher: 78% for the first, 68% for the second.

First: CC(C)C[C@H](NC(=O)[C@H](C)NC(=O)[C@H](CCCNC(=N)N)NC(=O)OCc1ccccc1)[C@@H](O)CC(=O)N(C)C(C)c1ccccc1 (stereo partly drawn)
Second: CC(C)C[C@H](NC(=O)[C@H](C)NC(=O)[C@H](CCCNC(=N)N)NC(=O)OCc1ccccc1)[C@@H](O)CC(=O)N(C)C (Cbz-Arg-Ala-[Sta]-NMe2)
The inhibition of the first is lower: 30% for the first, 32% for the second.

First: CC(C)C[C@H](NC(=O)[C@H](C)NC(=O)[C@H](CCCNC(=N)N)NC(=O)OCc1ccccc1)[C@@H](O)CC(=O)N1CCC(c2ccccc2)CC1
Second: CC(C)C[C@H](NC(=O)[C@H](C)NC(=O)[C@H](CCCNC(=N)N)NC(=O)OCc1ccccc1)[C@@H](O)CC(=O)N1CCc2ccccc2C1
The inhibition of the first is lower: 13% for the first, 45% for the second.

Compared with `CC(C)CNC(=O)C[C@H](O)[C@H](CC(C)C)NC(=O)[C@H](C)NC(=O)[C@H](CCCNC(=N)N)NC(=O)OCc1ccccc1`, `CC(C)CCNC(=O)C[C@H](O)[C@H](CC(C)C)NC(=O)[C@H](C)NC(=O)[C@H](CCCNC(=N)N)NC(=O)OCc1ccccc1` is higher in inhibition: 49% for the first, 65% for the second.

Going from `CC(C)C[C@H](NC(=O)[C@H](C)NC(=O)[C@H](CCCNC(=N)N)NC(=O)N(C)C)[C@@H](O)CC(=O)NCCc1ccccc1` ({NMe2-CO}-Arg-Ala-[Sta]-NHPhenethyl) to `CC(=O)N[C@@H](CCCNC(=N)N)C(=O)N[C@@H](C)C(=O)N[C@@H](CC(C)C)[C@@H](O)CC(=O)NCCc1ccccc1` (Ac-Arg-Ala-[Sta]-NHPhenethyl), the inhibition falls from 65% to 42%.

First: CC(C)C[C@H](NC(=O)[C@H](C)NC(=O)[C@H](CCCNC(=N)N)NC(=O)OCc1ccccc1)[C@@H](O)CC(=O)N1CCCC1 (Cbz-Arg-Ala-[Sta]-Pyrrolidide)
Second: CC(C)C[C@H](NC(=O)[C@H](C)NC(=O)[C@H](CCCNC(=N)N)NC(=O)OCc1ccccc1)[C@@H](O)CC(=O)N1CCCCC1 (Cbz-Arg-Ala-[Sta]-Piperidide)
The inhibition of the first is lower: 13% for the first, 27% for the second.

Going from `CC(C)C[C@H](NC(=O)[C@H](C)NC(=O)[C@H](CCCNC(=N)N)NC(=O)C(C)C)[C@@H](O)CC(=O)NCCc1ccccc1` (Isobutyryl-Arg-Ala-[Sta]-NHPhenethyl) to `CC(C)COC(=O)N[C@@H](CCCNC(=N)N)C(=O)N[C@@H](C)C(=O)N[C@@H](CC(C)C)[C@@H](O)CC(=O)NCCc1ccccc1`, the inhibition falls from 49% to 47%.

Going from `CC(C)C[C@H](NC(=O)[C@H](C)NC(=O)[C@H](CCCNC(=N)N)NC(=O)OCc1ccccc1)[C@@H](O)CC(=O)NC1CC1` to `CC(C)C[C@H](NC(=O)[C@H](C)NC(=O)[C@H](CCCNC(=N)N)NC(=O)OCc1ccccc1)[C@@H](O)CC(=O)NC1CCCC1`, the inhibition falls from 55% to 52%.

Compared with `CC(C)C[C@H](NC(=O)[C@H](C)NC(=O)[C@H](CCCNC(=N)N)NS(=O)(=O)C1CC1)[C@@H](O)CC(=O)NCCc1ccccc1`, `CC(C)C[C@H](NC(=O)[C@H](C)NC(=O)[C@H](CCCNC(=N)N)NS(C)(=O)=O)[C@@H](O)CC(=O)NCCc1ccccc1` (Ms-Arg-Ala-[Sta]-NHPhenethyl) is lower in inhibition: 80% for the first, 53% for the second.

Going from `CCCNC(=O)C[C@H](O)[C@H](CC(C)C)NC(=O)[C@H](C)NC(=O)[C@H](CCCNC(=N)N)NC(=O)OCc1ccccc1` (Cbz-Arg-Ala-[Sta]-NHPr) to `CC(C)C[C@H](NC(=O)[C@H](C)NC(=O)[C@H](CCCNC(=N)N)NC(=O)OCc1ccccc1)[C@@H](O)CC(=O)NC(C)C` (Cbz-Arg-Ala-[Sta]-NHiPr), the inhibition falls from 56% to 42%.

First: CC(C)C[C@H](NC(=O)[C@H](C)NC(=O)[C@H](CCCNC(=N)N)NC(=O)OCc1ccccc1)[C@@H](O)CC(=O)NCC1CCCCC1
Second: CC(C)C[C@H](NC(=O)[C@H](C)NC(=O)[C@H](CCCNC(=N)N)NC(=O)C1CCCCC1)[C@@H](O)CC(=O)NCCc1ccccc1
The inhibition of the first is higher: 63% for the first, 43% for the second.

Compared with `CC(C)C[C@H](NC(=O)[C@H](C)NC(=O)[C@H](CCCNC(=N)N)NC(=O)OCc1ccccc1)[C@@H](O)CC(=O)NCCCc1ccccc1`, `CC(C)C[C@H](NC(=O)[C@H](C)NC(=O)[C@H](CCCNC(=N)N)NC(=O)Cc1ccccc1)[C@@H](O)CC(=O)NCCc1ccccc1` (PhAc-Arg-Ala-[Sta]-NHPhenethyl) is lower in inhibition: 75% for the first, 59% for the second.

Compared with `CC(C)C[C@H](NC(=O)[C@H](C)NC(=O)[C@H](CCCNC(=N)N)NC(=O)NC1CCCC1)[C@@H](O)CC(=O)NCCc1ccccc1`, `CCNC(=O)N[C@@H](CCCNC(=N)N)C(=O)N[C@@H](C)C(=O)N[C@@H](CC(C)C)[C@@H](O)CC(=O)NCCc1ccccc1` ({NHEt-CO}-Arg-Ala-[Sta]-NHPhenethyl) is lower in inhibition: 41% for the first, 26% for the second.

First: CC(C)C[C@H](NC(=O)[C@H](C)NC(=O)[C@H](CCCNC(=N)N)NC(=O)Nc1ccccc1)[C@@H](O)CC(=O)NCCc1ccccc1 ({NHPh-CO}-Arg-Ala-[Sta]-NHPhenethyl)
Second: CC(C)C[C@H](NC(=O)[C@H](C)NC(=O)[C@H](CCCNC(=N)N)NC(=O)NCc1ccccc1)[C@@H](O)CC(=O)NCCc1ccccc1 ({NHBn-CO}-Arg-Ala-[Sta]-NHPhenethyl)
The inhibition of the first is higher: 53% for the first, 32% for the second.

For `C=CCOC(=O)N[C@@H](CCCNC(=N)N)C(=O)N[C@@H](C)C(=O)N[C@@H](CC(C)C)[C@@H](O)CC(=O)NCCc1ccccc1` (Alloc-Arg-Ala-[Sta]-NHPhenethyl), the inhibition was 35%.

Target: Plasmepsin V (Plasmodium falciparum (isolate 3D7), UniProt Q8I6Z5)
Experiment: Inhibition of Plasmodium falciparum plasmepsin V assessed as cleavage of wtKAHRP fluorogenic substrate

Chain of Plasmepsin V (Q8I6Z5 whole entry): as the sequence (Q8I6Z5 whole entry, looked up) above

`CC(C)C[C@H](NC(=O)[C@H](C)NC(=O)[C@H](CCc1ccccc1)NC(=O)OCc1ccccc1)[C@@H](O)CC(=O)NC1CCCCC1` and `C[C@H](NC(=O)[C@H](CCCNC(=N)N)NC(=O)OCc1ccccc1)C(=O)N[C@@H](Cc1ccccc1)[C@@H](O)CC(=O)NC1CCCCC1` cannot be ordered by IC50: greater than 20 µM for the first, greater than 20 µM for the second.

`CC(C)C[C@H](NC(=O)[C@H](C)NC(=O)[C@H](CCCCNC(=N)N)NC(=O)OCc1ccccc1)[C@@H](O)CC(=O)NC1CCCCC1` and `CC(C)[C@H](NC(=O)[C@H](C)NC(=O)[C@H](CCCNC(=N)N)NC(=O)OCc1ccccc1)[C@@H](O)CC(=O)NC1CCCCC1` cannot be ordered by IC50: greater than 20 µM for the first, greater than 20 µM for the second.

First: CC(=O)N[C@@H](CCCNC(=N)N)C(=O)N[C@@H](C)C(=O)N[C@@H](CC(C)C)[C@@H](O)CC(=O)N[C@@H](CCC(N)=O)C(N)=O (Ac-RA[Sta]Q-NH2)
Second: CC[C@H](C)[C@H](NC(=O)[C@H](C)NC(=O)[C@H](CCCNC(=N)N)NC(=O)OCc1ccccc1)[C@@H](O)CC(=O)NC1CCCCC1
The IC50 of the first is lower: 0.556 µM for the first, greater than 20 µM for the second. The first is the more potent here.

Target: Cathepsin D (Homo sapiens, UniProt P07339)
Experiment: Inhibition of human cathepsin D assessed as cleavage of wtKAHRP fluorogenic substrate

Chain of Cathepsin D (P07339 65-162 limits assumed): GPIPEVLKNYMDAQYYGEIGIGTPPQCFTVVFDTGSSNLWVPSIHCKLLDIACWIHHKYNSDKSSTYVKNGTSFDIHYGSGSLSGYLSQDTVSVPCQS
Chain of Cathepsin D (P07339 169-412 limits assumed): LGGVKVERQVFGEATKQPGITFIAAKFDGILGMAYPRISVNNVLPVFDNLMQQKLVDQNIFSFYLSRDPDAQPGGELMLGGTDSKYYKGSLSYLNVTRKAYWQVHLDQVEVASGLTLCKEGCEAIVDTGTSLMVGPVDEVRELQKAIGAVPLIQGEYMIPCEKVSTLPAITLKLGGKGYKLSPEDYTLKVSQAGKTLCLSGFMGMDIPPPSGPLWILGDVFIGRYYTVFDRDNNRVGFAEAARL

Going from `CC(C)C[C@H](NC(=O)[C@H](C)NC(=O)[C@H](CCc1ccccc1)NC(=O)OCc1ccccc1)[C@@H](O)CC(=O)NC1CCCCC1` to `CC(=O)N[C@@H](CCCNC(=N)N)C(=O)N[C@@H](C)C(=O)N[C@@H](CC(C)C)[C@@H](O)CC(=O)N[C@@H](CCC(N)=O)C(N)=O` (Ac-RA[Sta]Q-NH2), the IC50 rises from 0.043 µM to greater than 100 µM.

Target: Beta-secretase 1 (Homo sapiens, UniProt P56817)
Experiment: Inhibition of human BACE1 assessed as cleavage of TRF substrate

Chain of Beta-secretase 1 (P56817 whole entry): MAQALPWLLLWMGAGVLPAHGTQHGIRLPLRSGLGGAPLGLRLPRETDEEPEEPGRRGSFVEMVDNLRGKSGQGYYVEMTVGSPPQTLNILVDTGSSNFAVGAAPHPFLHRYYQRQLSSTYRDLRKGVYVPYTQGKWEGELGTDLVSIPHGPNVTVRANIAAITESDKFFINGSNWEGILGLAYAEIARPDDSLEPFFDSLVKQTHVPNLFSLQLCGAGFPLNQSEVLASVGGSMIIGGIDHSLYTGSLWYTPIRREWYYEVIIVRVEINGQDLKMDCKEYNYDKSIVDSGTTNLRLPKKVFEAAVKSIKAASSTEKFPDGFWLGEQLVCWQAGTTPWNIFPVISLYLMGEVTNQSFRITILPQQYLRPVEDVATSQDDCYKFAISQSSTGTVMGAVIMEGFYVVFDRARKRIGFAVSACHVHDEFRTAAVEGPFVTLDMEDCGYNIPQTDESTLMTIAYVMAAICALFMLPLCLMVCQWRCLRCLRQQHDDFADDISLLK

`CC(C)C[C@H](NC(=O)[C@H](C)NC(=O)[C@H](CCc1ccccc1)NC(=O)OCc1ccccc1)[C@@H](O)CC(=O)NC1CCCCC1` and `CC(=O)N[C@@H](CCCNC(=N)N)C(=O)N[C@@H](C)C(=O)N[C@@H](CC(C)C)[C@@H](O)CC(=O)N[C@@H](CCC(N)=O)C(N)=O` (Ac-RA[Sta]Q-NH2) cannot be ordered by IC50: greater than 100 µM for the first, greater than 100 µM for the second.
